{
  "source": "paper PMC10629545",
  "about": "“Identification of a second glycoform of the clinically prevalent O1 antigen from Klebsiella pneumoniae” (Proceedings of the National Academy of Sciences of the …, 2023)",
  "biological_target": "T1, His6-WbbZ (WbbZ pyruvyltransferase) (Klebsiella pneumoniae, UniProt A0A0C4KUT2)",
  "T1 construct": "His6-tagged, expressed in E. coli TOP10, Ni-NTA purified",
  "T1 sequence (A0A0C4KUT2 entry or part of it)": "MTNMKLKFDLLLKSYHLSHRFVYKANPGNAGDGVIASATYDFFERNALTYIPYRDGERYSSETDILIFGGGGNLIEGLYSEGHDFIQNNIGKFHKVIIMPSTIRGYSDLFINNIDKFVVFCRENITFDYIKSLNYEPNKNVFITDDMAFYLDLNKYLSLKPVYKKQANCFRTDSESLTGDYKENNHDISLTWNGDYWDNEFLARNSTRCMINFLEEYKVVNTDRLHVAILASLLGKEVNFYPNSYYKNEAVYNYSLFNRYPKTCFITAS",
  "assay": "PAGE of reaction products; MS and NMR",
  "assay_type": "biochemical",
  "conditions": "pyruvyl donor, 10 mM PEP; acceptor formed by WbbY; pH 7.5, 10 mM MgCl2, 30 °C",
  "data": [
    {"smiles": "C=C(OP(=O)(O)O)C(=O)O", "note": "[PEP]", "values": [
      {"measurement": "PAGE of reaction products; MS and NMR", "value": "phosphoenolpyruvate (PEP)-dependent reduction of the size of the reaction products"}
    ]}
  ]
}
